Source: PMC9873280, “In silico identification and biological evaluation of a selective MAP4K4 inhibitor against pancreatic cancer” (Journal of Enzyme Inhibition and Medicinal Chemistry, 2023)
pIC50: −log10 of the molar value.

What follows are molecules tested against T1, MAP4K7 (Homo sapiens, UniProt Q9UKE5) (assay: kinase profiling panel). Settings: read-out: % inhibition at 150 nM.
T1 construct: gene TNIK; recombinant kinase of a commercial 81-kinase panel
Assay type: biochemical

T1 sequence (Q9UKE5 whole entry): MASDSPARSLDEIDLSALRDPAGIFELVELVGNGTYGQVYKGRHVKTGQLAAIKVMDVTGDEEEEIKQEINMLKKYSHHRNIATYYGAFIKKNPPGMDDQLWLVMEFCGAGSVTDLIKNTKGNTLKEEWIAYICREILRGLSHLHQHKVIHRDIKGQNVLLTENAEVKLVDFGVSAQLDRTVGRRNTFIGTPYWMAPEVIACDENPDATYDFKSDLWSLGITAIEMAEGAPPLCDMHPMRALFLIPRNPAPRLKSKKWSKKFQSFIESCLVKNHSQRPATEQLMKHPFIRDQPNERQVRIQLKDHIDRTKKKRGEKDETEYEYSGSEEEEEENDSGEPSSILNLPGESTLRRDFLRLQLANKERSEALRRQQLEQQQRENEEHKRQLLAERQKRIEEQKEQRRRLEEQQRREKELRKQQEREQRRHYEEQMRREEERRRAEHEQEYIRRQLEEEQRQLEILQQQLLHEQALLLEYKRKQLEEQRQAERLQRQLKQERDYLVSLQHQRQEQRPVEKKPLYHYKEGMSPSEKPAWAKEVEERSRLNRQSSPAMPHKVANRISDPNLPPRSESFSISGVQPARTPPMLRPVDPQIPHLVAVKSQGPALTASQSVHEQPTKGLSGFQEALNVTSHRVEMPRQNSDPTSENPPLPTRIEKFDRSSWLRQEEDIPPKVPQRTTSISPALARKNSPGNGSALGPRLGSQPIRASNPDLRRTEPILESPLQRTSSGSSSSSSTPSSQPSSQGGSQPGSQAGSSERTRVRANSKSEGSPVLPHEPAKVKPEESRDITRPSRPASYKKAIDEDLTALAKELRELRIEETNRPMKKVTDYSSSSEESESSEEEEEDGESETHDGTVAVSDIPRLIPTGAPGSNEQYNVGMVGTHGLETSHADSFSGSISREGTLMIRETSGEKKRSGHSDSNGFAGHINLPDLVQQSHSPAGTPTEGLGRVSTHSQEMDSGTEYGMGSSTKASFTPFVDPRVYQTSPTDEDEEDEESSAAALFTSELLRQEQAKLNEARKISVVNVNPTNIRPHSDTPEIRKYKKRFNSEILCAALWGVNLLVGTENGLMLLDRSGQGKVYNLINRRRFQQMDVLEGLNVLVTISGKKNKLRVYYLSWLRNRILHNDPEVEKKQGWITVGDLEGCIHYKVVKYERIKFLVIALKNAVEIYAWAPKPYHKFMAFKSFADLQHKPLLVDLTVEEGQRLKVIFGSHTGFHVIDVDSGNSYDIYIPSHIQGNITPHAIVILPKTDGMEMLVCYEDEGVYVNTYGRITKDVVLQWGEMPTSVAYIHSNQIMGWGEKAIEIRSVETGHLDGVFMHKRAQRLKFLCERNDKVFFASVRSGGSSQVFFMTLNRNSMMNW

| inhibition at 0.15 µM | Structure (SMILES) |
| --- | --- |
| 27% | CSc1ccc(CNC(=O)c2ccc3c(c2)NC(=O)C(=Cc2cccc(Cl)c2)O3)cc1 [F389-0746] |

These molecules were tested against T2, MAP4K4 (Homo sapiens, UniProt O95819) (assay: Z'LYTE kinase activity assay). Settings: 1 h incubation with ATP.
T2 construct: recombinant kinase of the ThermoFisher SelectScreen service
T2 sequence (O95819 2-1239): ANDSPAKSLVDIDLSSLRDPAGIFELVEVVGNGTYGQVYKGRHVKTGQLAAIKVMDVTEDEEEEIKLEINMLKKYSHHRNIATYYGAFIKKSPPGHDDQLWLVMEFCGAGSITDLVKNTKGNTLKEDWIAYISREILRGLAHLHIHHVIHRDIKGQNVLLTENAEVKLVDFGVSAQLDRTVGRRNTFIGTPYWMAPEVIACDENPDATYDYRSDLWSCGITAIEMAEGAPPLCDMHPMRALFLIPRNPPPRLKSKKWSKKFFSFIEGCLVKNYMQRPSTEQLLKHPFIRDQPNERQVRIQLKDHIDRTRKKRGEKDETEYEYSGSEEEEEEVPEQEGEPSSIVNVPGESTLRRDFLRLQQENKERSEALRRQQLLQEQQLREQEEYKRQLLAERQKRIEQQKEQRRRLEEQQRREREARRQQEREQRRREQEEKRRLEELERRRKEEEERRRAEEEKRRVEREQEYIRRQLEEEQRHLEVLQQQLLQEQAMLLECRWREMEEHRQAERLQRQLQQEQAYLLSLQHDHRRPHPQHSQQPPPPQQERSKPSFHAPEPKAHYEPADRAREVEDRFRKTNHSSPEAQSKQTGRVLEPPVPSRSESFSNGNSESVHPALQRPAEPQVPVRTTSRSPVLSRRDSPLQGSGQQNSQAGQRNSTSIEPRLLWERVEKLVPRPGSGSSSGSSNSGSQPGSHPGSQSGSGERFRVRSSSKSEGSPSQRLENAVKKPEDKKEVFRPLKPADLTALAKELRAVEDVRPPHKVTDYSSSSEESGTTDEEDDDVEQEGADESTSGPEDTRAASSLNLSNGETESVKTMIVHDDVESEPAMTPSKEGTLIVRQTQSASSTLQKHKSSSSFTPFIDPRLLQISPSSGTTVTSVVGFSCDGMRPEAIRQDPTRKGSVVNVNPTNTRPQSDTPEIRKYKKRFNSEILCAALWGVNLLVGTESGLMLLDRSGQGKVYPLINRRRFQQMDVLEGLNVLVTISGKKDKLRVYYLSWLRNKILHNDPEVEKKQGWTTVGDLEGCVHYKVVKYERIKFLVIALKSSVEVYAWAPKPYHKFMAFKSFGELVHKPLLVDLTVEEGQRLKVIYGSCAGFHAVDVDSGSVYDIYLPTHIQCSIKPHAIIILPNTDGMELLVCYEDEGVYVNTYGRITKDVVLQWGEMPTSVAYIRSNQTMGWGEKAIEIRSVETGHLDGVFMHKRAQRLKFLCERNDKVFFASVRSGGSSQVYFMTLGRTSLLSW
Assay type: biochemical

| pIC50 | Structure (SMILES) |
| --- | --- |
| 6.47 | CCOc1ccc(CNC(=O)c2ccc3c(c2)NC(=O)C(=Cc2ccc(Cl)cc2)O3)cc1OC [F389-0169] |
| 6.42 | CCOc1ccc(CNC(=O)c2ccc3c(c2)NC(=O)C(=Cc2cccc(Cl)c2)O3)cc1OC [F389-0745] |
| 6.48 | O=C1Nc2cc(C(=O)NCc3cccc(F)c3)ccc2OC1=Cc1ccc(Cl)cc1 [F389-0183] |

More lines, now with the values behind:

| Structure (SMILES) | pIC50 |
| --- | --- |
| COc1ccc(CCNC(=O)c2ccc3c(c2)NC(=O)C(=Cc2cccc(Cl)c2)O3)cc1OC [F389-0604] | 6.72 |
| CSc1ccc(CNC(=O)c2ccc3c(c2)NC(=O)C(=Cc2cccc(Cl)c2)O3)cc1 [F389-0746] | 6.92 |
| CN1CCN(CCNC(=O)c2ccc3c(c2)NC(=O)C(=Cc2ccc(Cl)cc2)O3)CC1 [F389-0167] | 6.56 |

Each molecule was assayed against T3, MAP4K5 (Homo sapiens, UniProt Q9Y4K4) (assay: kinase profiling panel). Settings: read-out: % inhibition at 150 nM.
T3 construct: recombinant kinase of a commercial 81-kinase panel
T3 sequence (Q9Y4K4 whole entry): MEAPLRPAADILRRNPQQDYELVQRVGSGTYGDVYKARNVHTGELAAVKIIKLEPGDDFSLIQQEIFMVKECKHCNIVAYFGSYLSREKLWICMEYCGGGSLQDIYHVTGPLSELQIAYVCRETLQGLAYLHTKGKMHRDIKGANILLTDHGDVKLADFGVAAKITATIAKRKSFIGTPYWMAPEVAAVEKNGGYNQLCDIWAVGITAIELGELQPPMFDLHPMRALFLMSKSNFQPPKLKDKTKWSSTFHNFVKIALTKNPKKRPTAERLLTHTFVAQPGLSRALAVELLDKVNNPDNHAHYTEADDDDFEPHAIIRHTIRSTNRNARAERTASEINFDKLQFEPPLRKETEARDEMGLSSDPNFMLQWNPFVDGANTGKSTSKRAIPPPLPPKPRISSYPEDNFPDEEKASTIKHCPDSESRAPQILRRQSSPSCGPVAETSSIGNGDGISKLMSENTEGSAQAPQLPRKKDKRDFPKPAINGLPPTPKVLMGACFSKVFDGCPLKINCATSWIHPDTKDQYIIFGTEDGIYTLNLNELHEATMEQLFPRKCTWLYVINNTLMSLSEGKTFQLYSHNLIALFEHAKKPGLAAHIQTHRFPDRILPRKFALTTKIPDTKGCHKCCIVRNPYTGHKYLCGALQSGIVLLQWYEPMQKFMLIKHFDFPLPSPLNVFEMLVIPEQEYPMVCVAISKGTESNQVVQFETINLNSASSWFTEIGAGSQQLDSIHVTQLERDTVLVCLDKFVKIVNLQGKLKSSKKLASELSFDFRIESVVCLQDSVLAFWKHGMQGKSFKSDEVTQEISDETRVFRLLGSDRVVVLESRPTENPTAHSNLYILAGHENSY
Assay type: biochemical

| inhibition at 0.15 µM | Structure (SMILES) |
| --- | --- |
| 17% | CSc1ccc(CNC(=O)c2ccc3c(c2)NC(=O)C(=Cc2cccc(Cl)c2)O3)cc1 [F389-0746] |

These molecules were tested against T4, MAP4K6 (Homo sapiens, UniProt Q8N4C8) (assay: kinase profiling panel). Settings: read-out: % inhibition at 150 nM.
T4 construct: gene MINK1; recombinant kinase of a commercial 81-kinase panel
T4 sequence (Q8N4C8 whole entry): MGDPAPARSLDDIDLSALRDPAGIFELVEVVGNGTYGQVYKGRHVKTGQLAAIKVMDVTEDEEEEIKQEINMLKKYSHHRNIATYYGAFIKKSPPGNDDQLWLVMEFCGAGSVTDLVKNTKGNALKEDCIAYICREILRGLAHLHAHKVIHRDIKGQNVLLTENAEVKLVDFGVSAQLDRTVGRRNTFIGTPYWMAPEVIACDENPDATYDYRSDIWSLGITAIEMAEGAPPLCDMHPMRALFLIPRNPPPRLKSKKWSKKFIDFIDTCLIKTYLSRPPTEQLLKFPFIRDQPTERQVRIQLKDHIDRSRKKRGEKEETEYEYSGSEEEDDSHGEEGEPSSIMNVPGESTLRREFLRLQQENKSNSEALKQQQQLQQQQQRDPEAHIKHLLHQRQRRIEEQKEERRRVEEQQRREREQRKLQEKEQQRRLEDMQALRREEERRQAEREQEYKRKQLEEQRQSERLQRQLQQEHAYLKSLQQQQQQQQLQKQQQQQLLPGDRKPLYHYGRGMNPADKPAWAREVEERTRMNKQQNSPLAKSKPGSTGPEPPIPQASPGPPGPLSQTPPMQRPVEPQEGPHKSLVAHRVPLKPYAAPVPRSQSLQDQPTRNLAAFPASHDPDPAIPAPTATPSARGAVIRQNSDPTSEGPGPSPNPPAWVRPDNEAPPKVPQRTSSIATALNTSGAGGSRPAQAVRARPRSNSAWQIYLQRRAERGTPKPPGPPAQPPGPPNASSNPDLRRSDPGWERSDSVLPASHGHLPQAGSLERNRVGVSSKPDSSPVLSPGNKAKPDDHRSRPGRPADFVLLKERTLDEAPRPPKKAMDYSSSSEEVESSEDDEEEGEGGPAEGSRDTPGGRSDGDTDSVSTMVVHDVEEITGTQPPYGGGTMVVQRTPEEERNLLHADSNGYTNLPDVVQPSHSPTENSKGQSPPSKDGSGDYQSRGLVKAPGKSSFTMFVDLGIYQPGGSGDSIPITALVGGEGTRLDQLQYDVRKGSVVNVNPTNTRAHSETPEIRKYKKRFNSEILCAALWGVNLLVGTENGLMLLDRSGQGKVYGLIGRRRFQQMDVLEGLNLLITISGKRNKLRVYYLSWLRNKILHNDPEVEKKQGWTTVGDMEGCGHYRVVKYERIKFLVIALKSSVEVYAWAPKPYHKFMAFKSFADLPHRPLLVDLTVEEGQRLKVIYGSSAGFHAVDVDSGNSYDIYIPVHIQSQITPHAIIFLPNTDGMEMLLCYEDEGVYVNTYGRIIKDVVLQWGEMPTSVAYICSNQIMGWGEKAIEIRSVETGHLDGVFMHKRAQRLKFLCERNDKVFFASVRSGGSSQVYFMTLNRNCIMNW
Assay type: biochemical

| inhibition at 0.15 µM | Structure (SMILES) |
| --- | --- |
| 44% | CSc1ccc(CNC(=O)c2ccc3c(c2)NC(=O)C(=Cc2cccc(Cl)c2)O3)cc1 [F389-0746] |

These molecules were tested against T2, MAP4K4 (assay: Z'LYTE kinase activity assay). Settings: not given.
Assay type: biochemical
From the text: Z'LYTE kinase activity assay on MAP4K4

| inhibition at 1 µM | Structure (SMILES) |
| --- | --- |
| 70% | COc1cccc(CNC(=O)c2ccc3c(c2)NC(=O)C(=Cc2ccc(Cl)cc2)O3)c1 [F389-0093] |
| 68% | COc1ccccc1CNC(=O)c1ccc2c(c1)NC(=O)C(=Cc1ccc(Cl)cc1)O2 [F389-0092] |
| 67% | CCOc1cc(CNC(=O)c2ccc3c(c2)NC(=O)C(=Cc2ccc(Cl)cc2)O3)ccc1OC [F389-0164] |

Further lines, the molecule ahead of its results:

| Structure (SMILES) | inhibition at 1 µM |
| --- | --- |
| CCOc1ccccc1CNC(=O)c1ccc2c(c1)NC(=O)C(=Cc1cccc(Cl)c1)O2 [F389-0738] | 57% |
| COc1cccc(CNC(=O)c2ccc3c(c2)NC(=O)C(=Cc2cccc(Cl)c2)O3)c1 [F389-0669] | 59% |
| O=C1Nc2cc(C(=O)NCc3ccccc3F)ccc2OC1=Cc1ccc(Cl)cc1 [F389-0161] | 72% |
| O=C1Nc2cc(C(=O)NCc3cccc(F)c3)ccc2OC1=Cc1cccc(Cl)c1 [F389-0759] | 61% |
| CCOc1ccc(CNC(=O)c2ccc3c(c2)NC(=O)C(=Cc2cccc(Cl)c2)O3)cc1 [F389-0750] | 67% |
| O=C1Nc2cc(C(=O)NCc3ccccc3Cl)ccc2OC1=Cc1cccc(Cl)c1 [F389-0592] | 57% |
